In PubChem BioAssay (NCI) one finds GI50 and TGI data, which are given here for 7 compounds.

Some test systems named below: RPMI-8226 leukemia; RXF 393 renal; BT-549 breast; 786-0 renal; SF-295 CNS; U251 CNS; COLO 205 colon; UO-31 renal; KM12 colon; SNB-19 CNS.
What all share (assay): NCI tumour cell line growth inhibition, 48 h

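Exposure lasted 48 hours, with cells grown in 96-well plates and compounds tested at five concentrations. The concentration for 50% growth inhibition is given as GI50. TGI denotes the concentration required for complete inhibition of growth.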 Some results are limits rather than exact numbers.

Turning to `O=C(CC(=O)c1ccccc1)c1ccccc1`, the GI50 is 21.3 µM in the assay on RPMI-8226 leukemia; 22 µM in the assay with RXF 393 renal; 9.37 µM in the assay on BT-549 breast; 11 µM with 786-0 renal; 17.3 µM in the assay on SF-295 CNS; 2.15 µM in the assay with U251 CNS. Moreover, the GI50 was 22.5 µM in the assay with COLO 205 colon, 36.5 µM with UO-31 renal, 3.98 µM in the assay on KM12 colon and 27 µM in the assay with SNB-19 CNS. In addition, the TGI in the assay on RPMI-8226 leukemia is more than 100 µM; in the assay on RXF 393 renal, 88 µM; in the assay on BT-549 breast, 34.3 µM; in the assay on 786-0 renal it was 43.6 µM; in the assay with SF-295 CNS it was 99.7 µM; with U251 CNS, 8.05 µM. The TGI with COLO 205 colon, in the assay on UO-31 renal, in the assay with KM12 colon and with SNB-19 CNS was more than 100 µM in each case.

As for `O=C(Nc1ccc(I)cc1F)c1cc(I)ccc1O`, the GI50 with RPMI-8226 leukemia was 0.375 µM; in the assay with RXF 393 renal, 0.779 µM; in the assay on BT-549 breast, 0.548 µM; in the assay on 786-0 renal, 1.03 µM; in the assay on SF-295 CNS, 0.8 µM; with U251 CNS, 0.661 µM. The GI50 is 7.17 µM in the assay on COLO 205 colon, 0.535 µM in the assay on UO-31 renal, 1.01 µM with KM12 colon and 0.664 µM in the assay with SNB-19 CNS. Also, the TGI in the assay on RPMI-8226 leukemia is 1.64 µM; in the assay on RXF 393 renal, 3.24 µM; in the assay on BT-549 breast, 2.48 µM; with 786-0 renal, 9.51 µM; with SF-295 CNS, 2.14 µM; in the assay on U251 CNS it was more than 100 µM. Also, the TGI is 24 µM with COLO 205 colon, 2.22 µM in the assay on UO-31 renal, 3.85 µM in the assay with KM12 colon and more than 100 µM in the assay on SNB-19 CNS.

As for `CN(C)CCNc1nc2ccccc2c2c(=O)c3ccccc3sc12`, the GI50 was 2.42 µM with RPMI-8226 leukemia; 1.51 µM in the assay with RXF 393 renal; 1.88 µM with BT-549 breast; 1.49 µM in the assay on 786-0 renal; 1.76 µM with SF-295 CNS; 2.25 µM in the assay with U251 CNS. In addition, the GI50 in the assay on COLO 205 colon is 1.44 µM; in the assay on UO-31 renal it was 1.08 µM; with KM12 colon it was 1.71 µM; in the assay with SNB-19 CNS, 2.83 µM. The TGI in the assay on RPMI-8226 leukemia is 6.35 µM; with RXF 393 renal it was 4.11 µM; in the assay on BT-549 breast, 3.67 µM; in the assay on 786-0 renal, 2.98 µM; with SF-295 CNS, 4.03 µM; with U251 CNS it was 6.01 µM. Besides, the TGI with COLO 205 colon turned out to be 3.08 µM; in the assay with UO-31 renal, 3.37 µM; in the assay with KM12 colon it was 3.72 µM; in the assay with SNB-19 CNS, 11.3 µM.

Consider `COc1ccc(/C=N/N=C(\[O-])c2ccncc2)cc1F.COc1ccc(/C=N\N=C(/[O-])c2ccncc2)cc1F.[Cu+2]`, for which the GI50 with RPMI-8226 leukemia was 40.1 µM; in the assay on RXF 393 renal, 18.9 µM; in the assay on BT-549 breast, 20.5 µM; with 786-0 renal, 20.2 µM; with SF-295 CNS, 11.2 µM; with U251 CNS, 19.4 µM. The GI50 in the assay on COLO 205 colon was 19.7 µM; in the assay on UO-31 renal it was 64.4 µM; in the assay with KM12 colon, 16.2 µM; in the assay with SNB-19 CNS it was 17.8 µM. The TGI was more than 100 µM in the assay with RPMI-8226 leukemia; 32.9 µM in the assay with RXF 393 renal; 37.1 µM with BT-549 breast; 44.3 µM in the assay with 786-0 renal; 26.5 µM in the assay with SF-295 CNS; 35.8 µM with U251 CNS. The TGI is 42.2 µM in the assay on COLO 205 colon, more than 100 µM with UO-31 renal, 39 µM in the assay on KM12 colon and 35.7 µM with SNB-19 CNS.

For `Cc1cc(S(=O)(=O)Nc2nc3cc(Cl)ccc3o2)c(SCc2ccccc2)cc1Cl`, the GI50 with RPMI-8226 leukemia is 20.3 µM; in the assay on RXF 393 renal, 30.9 µM; in the assay on BT-549 breast, 19.3 µM; in the assay with 786-0 renal it was 20.1 µM; with SF-295 CNS, 18.7 µM; with U251 CNS, 19.2 µM. The GI50 with COLO 205 colon was 21.2 µM; in the assay with UO-31 renal it was 22.4 µM; with KM12 colon, 18.9 µM; in the assay with SNB-19 CNS, 21.2 µM. In addition, the TGI in the assay on RPMI-8226 leukemia was determined as 66.2 µM; with RXF 393 renal it was 58.5 µM; in the assay on BT-549 breast, 38.7 µM; in the assay with 786-0 renal it was 38 µM; with SF-295 CNS, 46.1 µM; in the assay on U251 CNS it was 37.1 µM. In addition, the TGI with COLO 205 colon is 44.1 µM; in the assay with UO-31 renal, 48.5 µM; in the assay on KM12 colon it was 45.5 µM; in the assay with SNB-19 CNS, 46.9 µM.

As for `COC(=O)[C@]12CC[C@@H](C)[C@H](C)[C@@H]1C1=CC[C@@H]3[C@@]4(C)CC(=O)[C@H](OC(=O)c5ccco5)[C@@]5(C)COC(=C45)C[C@@]3(C)[C@]1(C)CC2`, the GI50 in the assay on RPMI-8226 leukemia was 0.584 µM; with RXF 393 renal, 67.9 µM; in the assay on BT-549 breast, 2.91 µM; in the assay with 786-0 renal, 2.24 µM; with SF-295 CNS, 28.3 µM; in the assay with U251 CNS, 0.703 µM. Also, the GI50 in the assay on COLO 205 colon is 0.342 µM; in the assay with UO-31 renal, 1.7 µM; with KM12 colon, 2.22 µM; in the assay on SNB-19 CNS it was 3.57 µM. The TGI in the assay with RPMI-8226 leukemia, in the assay with RXF 393 renal, in the assay on BT-549 breast, in the assay with 786-0 renal, in the assay with SF-295 CNS and with U251 CNS was more than 100 µM throughout. Further, the TGI was 2.93 µM in the assay with COLO 205 colon, more than 100 µM in the assay with UO-31 renal, more than 100 µM in the assay on KM12 colon and more than 100 µM in the assay with SNB-19 CNS.

For `CC1(C)[C@@H](OC(N)=O)C=C[C@]2(C=O)[C@H]3CC[C@]4(C)[C@@H](c5ccc(=O)oc5)[C@@H](Cl)C[C@]4(O)C3=CC[C@@H]12`, the GI50 in the assay on RPMI-8226 leukemia was 0.00719 µM; in the assay with RXF 393 renal, 0.00561 µM; in the assay with BT-549 breast, 0.00491 µM; with 786-0 renal, 0.00478 µM; in the assay with SF-295 CNS it was 0.00502 µM; in the assay with U251 CNS, 0.00451 µM. Moreover, the GI50 with COLO 205 colon was 0.00685 µM; with UO-31 renal, 0.00524 µM; in the assay on KM12 colon, 0.00743 µM; in the assay on SNB-19 CNS it was 0.00782 µM. Also, the TGI in the assay on RPMI-8226 leukemia was found to be 0.023 µM; in the assay on RXF 393 renal, 0.0157 µM; with BT-549 breast, 0.0106 µM; in the assay with 786-0 renal, 0.0106 µM; in the assay on SF-295 CNS, 0.0111 µM; in the assay with U251 CNS, 0.00854 µM. Besides, the TGI was found to be 0.0178 µM in the assay on COLO 205 colon, 0.0124 µM with UO-31 renal, 0.0238 µM in the assay on KM12 colon and 0.0253 µM in the assay with SNB-19 CNS.
